# Measured values published in patent publication US7455990B2, “Method of extracting recombinant hexose oxidase” (priority 1999, dated 2008).
# Marks after values point to notes of the source that are not given here.
# Experiments:
# [1] = test system: cell suspension (HOX9910B); assay: Comparison between CTAB and other emulsifiers for extraction of HOX; type: cell-based, Hansenula polymorpha; settings: 20 h, 25°C, control (cells and buffer) = 100
# Experimental: Five mL of cell suspension (cells+supernatant) was added to a 15 mL centrifuge tube (HOX9910B, 305 g cells/liter wet weight, 1.6 U/ml extracellular HOX activity). Cells were separated by centrifugation at 4000 g for 10 min. Cells were then re-suspended in 4.0 mL 25 mM citric acid, pH 6.3 supplemented with either CTAB, emulsifiers SLL, YN, capric acid, lysolecithin, or lecithin. The cells were then incubated for 20 hours at 25° C. (500 rpm).
# [2] = test system: cell suspension (HOX9926-7); assay: Extraction of HOX by CTAB combined with salts and at different temperatures; type: cell-based, Hansenula polymorpha; settings: for HOX activity, %: 26 h, 25°C, control = 100
# Experimental: In order to examine the mechanism of the CTAB effect, CTAB was combined with chaotrophic and nonchaotrophic salts. Five mL cell suspension (cells+supernatant) was added to a 15 mL centrifuge tube (HOX9926-7, 317 g cells/liter wet weight, 0.3 U/mL extracellular HOX activity). Cells were separated by centrifugation at 4000 g for 10 min. The supernatant was then supplemented with either CTAB, CTAB+NaCl, CTAB+urea, CTAB+ammonium sulphate, or the non-ionic detergent, octyl-glucoside. The cells were then re-suspended in 4.0 mL supernatant and incubated for 26 hours at 25° C. (500 rpm). In this experiment, the effect of shaking and temperature was also investigated. After incubation, the cell-free extract was used to estimate HOX activity using the HOX assay as outlined in Example 4.
# Hansenula polymorpha [3] = assay: HOX extraction with different quaternary ammonium compounds; type: cell-based; settings: final concentration 0.4% (w/v); 24 h, 25°C, 200 RPM; LTAB = 100
# Experimental: Several quaternary ammonium compounds were tested with respect to extraction of the intracellular HOX enzyme from Hansenula polymorpha. A sample of fermentation broth was withdrawn from a 6 L scale fermentation where the biomass concentration was approximately 340 g wet weight per L. One mL of a 4% (w/v) solution of each of the quaternary ammonium compounds listed in Table 8 was added to 9 mL of fermentation broth in plastic tubes. After 24 h of incubation at 25° C. at 200 RPM the tubes were centrifuged 10 min. at 12000 g. The supernatants were analysed for HOX activity using the HOX assay as previously described.
# Hansenula polymorpha [4] = assay: HOX extraction with CTAB compared to Triton X-100; type: cell-based; settings: for HOX activity: 22 h, 25°C, 200 rpm, control ferment 1.2
# Experimental: CTAB or Triton X-100 was added to 5 mL of ferment, (sample HOX9954, Mut 45, 18.10.99, HVP) in a centrifuge tube. Water was added to the control. The samples were incubated at 25° C. for 22 h at 200 rpm. After incubation the samples were centrifuged and the supernatant was analyzed for HOX activity as previously described.
# [5] = Determination of LTAB by LC-ESI-MS (optimised method) in fermentation supernatants; settings: 0.20% (w/v) LTAB added
# Experimental: The analysis method for the quaternary ammonium compounds was optimised by using a different column, and by using different mobile phase. Two 90 L scale fermentations (Vest0002b with a biomass concentration of 314 g/L wet cells and Vest0003b with a biomass concentration of 332 g/L wet cells) were added LTAB to a concentration of 0.20% (w/v), and HOX was extracted for 24 h. A sample from each fermentation was centrifuged at 10000 g for 10 minutes, and the resulting supernatants were withdrawn for LTAB analysis. The following method was used to quantify the LTAB content in the supernatants by means of LC-ESI-MS on a Hewlett-Packard 1100 HPLC-MS system consisting of the following units:
# The system was equipped with a PLRP-S, 100 Å, 5 μm, 250×4.6 […] id. (Polymer Laboratories) column. Column temperature was 25° C.
# The chromatographic conditions were a mobile phase consisting of 0.1% heptafluorobutyric acid in methanol. The column was run with a solvent flow rate of 1.00 mL/min and an injection volume of 5 μL. The samples were diluted 25 fold with methanol and filtered through Gelman GHP Acrodisc 13 mM Minispike […] before injection.
# The detector settings were the following: SIM parameters: m/z 228.1 (lauroyltrimethylammonium cation). […]
# [6] = test system: Pichia pastoris strain #349; assay: HOX extraction with LTAB from Pichia pastoris; type: cell-based; settings: 180 μL of 10% (w/v) LTAB in 9 mL broth; 24 h, 30°C; control = 100
# Experimental: The extracting effect of LTAB was tested on the Pichia pastoris strain #349 that produces HOX intracellularly. A sample of fermentation broth was withdrawn from a 6 L scale fermentation where the biomass concentration was approximately 232 g wet weight per L. Nine mL of fermentation broth was added to plastic tubes together with 0 (control) or 180 μL of a 10% (w/v) solution of LTAB. After 24 h of incubation at 30° C. at 20 RPM the tubes were centrifuged 5 min. at 9000 g. The supernatants were analysed for HOX activity using the HOX assay as previously described.
# H. polymorpha = assay: Comparison of mechanical and LTAB recovery of glucan lyase (DNS method); type: cell-based, Hansenula polymorpha; settings: induced cells, transformants 2 and 8; 0.2% LTAB versus Mini Bead-Beater
# Experimental: The cells are resuspended in 5 mM sodium acetate pH=5.5 with 0.2% LTAB at 30% wet biomass in order to lyse the cells and release the intracellular glucan lyase.
# The tubes are incubated over night with shaking at 37° C. The cells are harvested by centrifuging at 4000 rpm in 10 minutes and the glucan lyase activity is determined in the cell-free extract and in the pellet. This is done to check if LTAB had opened the cells successfully before starting the purification of glucan lyase.
# Two transformants that expressed a high level of glucan lyase (transformant number 2 and 8) are grown at 24° C.
# To compare the specific activity under repressed and induced conditions samples are collected when the cells are grown in YND+2% glucose (repressed) and in YND+1% glycerol with 1% methanol added on the second day of growth (induced).
# The assay is performed as described in S. Yu et al., 1998. The red colour indicates glucan lyase activity is much stronger when the induced cells are opened with LTAB compared with opening of the cells mechanically on a Mini Bead-Beater (E1-E12 compared with C1-C12). […] When the cells are grown in YND+2% glucose a very low specific activity is observed as expected since the FMD promoter is repressed in this media. […] The assay detected a quite high glucan lyase activity in the pellet.
# Hansenula polymorpha [7] = assay: Time course of HOX extraction with CTAB, LTAB and CTAC; type: cell-based; settings: 25°C
# Experimental: The time course of HOX extraction was studied with CTAB, LTAB and CTAC. A fermentation sample containing 280 g wet weight of Hansenula polymorpha per L was withdrawn from the fermentor. A 4% (w/v) solution of CTAB, LTAB and CTAC was added to a final concentration of 0.2 or 0.4% (w/v) to plastic tubes containing 9 mL of fermentation broth. After 0, 7, 17, 24, and 48 h of incubation at 25° C. at 200 RPM the tubes were centrifuged 10 min. at 12000×g. The supernatants were analysed for HOX activity using the HOX assay as previously described.
# [8] = 0.5% in 25 mM citric acid pH 6.3
# [9] = 1.0% in 25 mM citric acid pH 6.3
# [10] = 0.4% in 25 mM citric acid pH 6.3
compound,measurement,setting,value
"CCCCCCCCCCCC(=O)OC(C)C(=O)OC(C)C(=O)[O-].[Na+] (stereo not shown) [emulsifier SSL, Sodium Lauroyl Lactylate]","HOX activity, %",[1]; [8],160%
same,"HOX activity, %",[1]; [9],140%
"CCCCCCCCO[C@@H]1O[C@H](CO)[C@@H](O)[C@H](O)[C@H]1O [octyl-glycoside, octyl-glucoside]",extracting effect on HOX,[2]; 0.2% and 0.4%,no significant extracting effect
same,"HOX activity, %",[2]; 0.2%,130%
same,"HOX activity, %","[2]; 0.4%, 500 rpm",190%
"CCCCCCCCCCCCCCCCCC(=O)[N+](C)(C)C.[Br-] [STAB, Stearoyl Trimethyl Ammonium Bromide]",Extracted HOX activity normalised with extracted amount with LTAB,Hansenula polymorpha [3],38
3-sn-phosphatidylcholine [lecithin],"HOX activity, %",[1]; [10],140%
"CCCCCCCCCCCCCC[N+](C)(C)C.[Cl-] [MTAC, Myristyl Trimethyl Ammonium Chloride]",Extracted HOX activity normalised with extracted amount with LTAB,Hansenula polymorpha [3],71
"CCCCCCCCCC(=O)O [capric acid, decanoic acid]","HOX activity, %",[1]; [8],120%
same,"HOX activity, %",[1]; [9],140%
polyethoxylated octylphenol [Triton X-100],HOX activity,Hansenula polymorpha [4]; 0.1%,1.5 U/mL
same,extracting effect on HOX,Hansenula polymorpha [4]; 0.1-1.0%,no extracting effect
same,HOX activity,Hansenula polymorpha [4]; 0.2%,1.6 U/mL
same,HOX activity,Hansenula polymorpha [4]; 0.4%,1.8 U/mL
same,HOX activity,Hansenula polymorpha [4]; 0.6%,1.9 U/mL
same,HOX activity,Hansenula polymorpha [4]; 1.0%,1.9 U/mL
lysophosphatidylcholine [lyso-lecithin],"HOX activity, %",[1]; [10],260%
Lauroyl Trimethyl Ammonium Bromide [LTAB],share of the added LTAB found in the cell free fraction,[5],about 27%
same,Extracted HOX activity normalised to the control tube without LTAB,[6],3000^c
same,"specific activity of glucan lyase, LTAB-treated cells versus mechanical opening",H. polymorpha,~60 fold
same,Extracted HOX activity normalised with extracted amount with LTAB,Hansenula polymorpha [3],100
same,Extracted HOX normalised to 0.4% (w/v) LTAB after 48 h,"Hansenula polymorpha [7]; 0.2% (w/v), 0 h",5
same,Extracted HOX normalised to 0.4% (w/v) LTAB after 48 h,"Hansenula polymorpha [7]; 0.2% (w/v), 7 h",15
same,Extracted HOX normalised to 0.4% (w/v) LTAB after 48 h,"Hansenula polymorpha [7]; 0.2% (w/v), 17 h",49
same,Extracted HOX normalised to 0.4% (w/v) LTAB after 48 h,"Hansenula polymorpha [7]; 0.2% (w/v), 24 h",65
same,Extracted HOX normalised to 0.4% (w/v) LTAB after 48 h,"Hansenula polymorpha [7]; 0.2% (w/v), 48 h",78
same,Extracted HOX normalised to 0.4% (w/v) LTAB after 48 h,"Hansenula polymorpha [7]; 0.4% (w/v), 0 h","6 ± 1,"
same,Extracted HOX normalised to 0.4% (w/v) LTAB after 48 h,"Hansenula polymorpha [7]; 0.4% (w/v), 7 h",25
same,Extracted HOX normalised to 0.4% (w/v) LTAB after 48 h,"Hansenula polymorpha [7]; 0.4% (w/v), 17 h",74
same,Extracted HOX normalised to 0.4% (w/v) LTAB after 48 h,"Hansenula polymorpha [7]; 0.4% (w/v), 24 h","83 ± 8,"
same,Extracted HOX normalised to 0.4% (w/v) LTAB after 48 h,"Hansenula polymorpha [7]; 0.4% (w/v), 48 h","100 ± 25,"
